Results from publication PMC4902181 (Journal of medicinal chemistry, 2015).
Entries after “also recorded” stand apart in the source; their conditions may differ.

Experiments:
[1] = Human liver microsomal stability; format: in vitro ADME; conditions: compound 10 µM, 30 min incubation
[2] = Rat liver microsomal stability; format: in vitro ADME; conditions: compound 10 µM, 30 min incubation
serum RBP4 [3] = conditions: chronic oral administration, Abca4−/− mouse; cited from earlier work
lipofuscin bisretinoids = conditions: chronic oral administration, Abca4−/− mouse; cited from earlier work
[4] = 30 min incubation; cited from earlier work
serum RBP4 [5] = conditions: acute and chronic rodent oral dosing; cited from earlier work
RBP4 = RBP4 (Homo sapiens, UniProt P02753); assay: RBP4 scintillation proximity assay; format: binding
CYP2C9 = CYP2C9 (Homo sapiens, UniProt P11712); conditions: read-out: CYP2C9 inhibitory activity IC50; cited from earlier work
CYP2C9, sequence (P11712 whole entry): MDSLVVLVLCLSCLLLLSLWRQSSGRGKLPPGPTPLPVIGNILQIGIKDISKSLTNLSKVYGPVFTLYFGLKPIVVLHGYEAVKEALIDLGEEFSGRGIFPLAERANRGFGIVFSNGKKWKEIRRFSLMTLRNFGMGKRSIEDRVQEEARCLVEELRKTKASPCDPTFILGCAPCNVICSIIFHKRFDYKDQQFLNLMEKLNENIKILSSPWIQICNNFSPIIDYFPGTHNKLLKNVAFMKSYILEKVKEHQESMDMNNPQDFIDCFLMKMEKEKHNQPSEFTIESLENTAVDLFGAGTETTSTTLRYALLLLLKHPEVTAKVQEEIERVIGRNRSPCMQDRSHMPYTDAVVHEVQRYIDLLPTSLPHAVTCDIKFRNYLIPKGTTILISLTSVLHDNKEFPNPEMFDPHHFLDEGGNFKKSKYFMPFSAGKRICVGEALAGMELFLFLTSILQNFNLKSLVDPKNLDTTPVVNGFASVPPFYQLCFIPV

RBP4-TTR interaction = RBP4-TTR interaction (Homo sapiens, UniProt P02753); assay: HTRF retinol-dependent RBP4-TTR interaction assay; format: biochemical; conditions: read-out: RBP4 HTRF IC50; 1 µM retinol
hERG channel = hERG channel (Homo sapiens, UniProt Q12809); assay: Patch-Xpress patch-clamp hERG assay; format: cell-based
hERG channel, sequence (Q12809 whole entry): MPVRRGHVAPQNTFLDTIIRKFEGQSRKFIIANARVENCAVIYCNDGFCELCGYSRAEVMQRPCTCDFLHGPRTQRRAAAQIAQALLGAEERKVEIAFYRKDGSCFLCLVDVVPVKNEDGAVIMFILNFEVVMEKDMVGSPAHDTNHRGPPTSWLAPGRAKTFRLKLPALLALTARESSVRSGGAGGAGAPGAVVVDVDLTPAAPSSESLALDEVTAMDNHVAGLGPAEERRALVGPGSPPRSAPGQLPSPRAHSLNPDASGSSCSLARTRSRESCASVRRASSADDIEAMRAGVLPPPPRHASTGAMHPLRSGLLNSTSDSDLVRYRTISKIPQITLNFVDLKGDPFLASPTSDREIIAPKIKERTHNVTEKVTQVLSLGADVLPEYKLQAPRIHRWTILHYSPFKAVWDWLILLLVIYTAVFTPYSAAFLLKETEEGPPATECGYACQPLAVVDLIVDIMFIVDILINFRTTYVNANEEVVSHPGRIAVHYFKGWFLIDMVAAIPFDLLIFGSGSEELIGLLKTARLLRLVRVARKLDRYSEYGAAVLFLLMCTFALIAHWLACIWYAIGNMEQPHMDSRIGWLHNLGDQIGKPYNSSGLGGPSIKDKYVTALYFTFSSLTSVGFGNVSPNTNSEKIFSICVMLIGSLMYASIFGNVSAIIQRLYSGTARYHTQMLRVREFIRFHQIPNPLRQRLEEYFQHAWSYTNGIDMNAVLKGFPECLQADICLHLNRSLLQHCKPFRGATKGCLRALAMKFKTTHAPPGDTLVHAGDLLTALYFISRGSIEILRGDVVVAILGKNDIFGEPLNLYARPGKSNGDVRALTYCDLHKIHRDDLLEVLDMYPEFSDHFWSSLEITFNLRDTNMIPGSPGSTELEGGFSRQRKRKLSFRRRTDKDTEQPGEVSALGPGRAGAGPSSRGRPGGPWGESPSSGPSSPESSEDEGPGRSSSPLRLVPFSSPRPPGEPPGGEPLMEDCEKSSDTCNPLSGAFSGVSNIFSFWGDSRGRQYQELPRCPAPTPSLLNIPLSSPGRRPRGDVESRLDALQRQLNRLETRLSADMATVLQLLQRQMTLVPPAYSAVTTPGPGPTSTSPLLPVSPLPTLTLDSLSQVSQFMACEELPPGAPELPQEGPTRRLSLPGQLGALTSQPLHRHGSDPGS

[6] = tested on: panel of fifty-five GPCRs, enzymes, ion channels, and transporters; assay: Standard off-target screening panel; conditions: data not shown
MDCK-MDR1 = assay: MDR1-MDCK permeability assay; format: in vitro ADME
human PXR = target: T1, human PXR (Homo sapiens, UniProt O75469); assay: Human PXR activation; conditions: data not shown
T1 sequence (O75469 1-434): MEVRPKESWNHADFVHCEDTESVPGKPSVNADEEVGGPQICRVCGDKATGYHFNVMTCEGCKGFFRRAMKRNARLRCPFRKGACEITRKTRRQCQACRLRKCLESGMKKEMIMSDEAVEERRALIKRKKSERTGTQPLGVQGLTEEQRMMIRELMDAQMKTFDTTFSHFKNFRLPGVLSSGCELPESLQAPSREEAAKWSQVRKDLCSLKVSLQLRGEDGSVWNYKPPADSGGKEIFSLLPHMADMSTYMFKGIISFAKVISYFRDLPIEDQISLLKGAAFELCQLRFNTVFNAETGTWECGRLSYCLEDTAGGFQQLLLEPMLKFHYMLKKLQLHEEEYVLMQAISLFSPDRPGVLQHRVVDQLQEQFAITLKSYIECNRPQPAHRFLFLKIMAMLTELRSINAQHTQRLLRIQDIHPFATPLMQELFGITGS

[7] = Single dose IV and PO PK in rats; format: in vivo; conditions: Sprague-Dawley, rat, plasma, 2 mg/kg

SMILES | microsomal stability (% remaining) HLM [1] [% remaining] | microsomal stability (% remaining) RLM [2] [% remaining] | further results
O=C(O)c1ccccc1NC(=O)N1CCC(c2ccccc2C(F)(F)F)CC1 [Compound 3, A1120, reference compound] | 3 | 85 | reduction in serum RBP4 (serum RBP4 [3]): 75%; reduction of accumulation of lipofuscin bisretinoids (lipofuscin bisretinoids): approximately 50%; HLM stability (% remaining) [4]: ~ 3 % remaining
O=C(O)c1ccccc1NC(=O)N1C[C@H]2C[C@@H](c3ccccc3C(F)(F)F)C[C@H]2C1 [Compound 4, 2-((3aR,5r,6aS)-5-(2-(trifluoromethyl)phenyl)octahydrocyclopenta[c]pyrrole-2-carboxamido)benzoic acid] | 100 | 75 | lowering of serum RBP4 levels (serum RBP4 [5]): > 85%; IC50 (RBP4; read-out: RBP4 SPA IC50, fixed 10 nM 3H-retinol): 0.0727 µM; IC50 (CYP2C9): 0.34 µM; IC50 (RBP4-TTR interaction): 0.294 µM; HLM stability (% remaining) [4]: 100 % remaining
Cc1cc(C(=O)O)nc(N2CCC(c3ccccc3C(F)(F)F)CC2)n1 [Compound 10, 6-Methyl-2-(4-(2-(trifluoromethyl)phenyl)piperidin-1-yl)-pyrimidine-4-carboxylic Acid] | 68 | 96 | –
COC(=O)c1cc(C)nc(N2CCN(c3ccccc3C(F)(F)F)CC2)n1 [Compound 13, methyl 6-methyl-2-(4-(2-(trifluoromethyl)phenyl)piperazin-1-yl)-pyrimidine-4-carboxylate] | 0.0 | 0.0 | –
Cc1cc(C(=O)O)nc(N2CCN(c3ccccc3C(F)(F)F)CC2)n1 [Compound 14, 6-Methyl-2-(4-(2-(trifluoromethyl)phenyl)piperazin-1-yl)-pyrimidine-4-carboxylic Acid] | 18 | 63 | –
Cc1cc(C(=O)O)nc(N2C[C@@H]3CN(c4ccccc4C(F)(F)F)C[C@@H]3C2)n1 [Compound 18, 6-Methyl-2-((3aR,6aS)-5-(2-(trifluoromethyl)phenyl)hexahydropyrrolo[3,4-c]pyrrol-2(1H)-yl)pyrimidine-4-carboxylic Acid] | 80 | 76 | –
COC(=O)c1cc(C)nc(N2C[C@H]3C[C@@H](c4ccccc4C(F)(F)F)C[C@H]3C2)n1 [Compound 28, Methyl 6-Methyl-2-((3aR,5r,6aS)-5-(2-(trifluoromethyl)phenyl)-hexahydrocyclopenta[c]pyrrol-2(1H)-yl)pyrimidine-4-carboxylate] | 0.2 | 9.8 | –
Cc1cc(C(=O)O)nc(N2C[C@H]3C[C@@H](c4ccccc4C(F)(F)F)C[C@H]3C2)n1 [Compound 33, 6-Methyl-2-((3aR,5r,6aS)-5-(2-(trifluoromethyl)phenyl)-hexahydrocyclopenta[c]pyrrol-2(1H)-yl)pyrimidine-4-carboxylic Acid] | 94 | 93 | off-target activity at the hERG channel (hERG channel): no significant off-target activity; off-target activity in screening panel [6]: no significant off-target activity; MDCK-MDR1 permeability class (MDCK-MDR1): highly permeable; also recorded: high permeability; human PXR activation (human PXR): did not induce human PXR activation; clearance [7]: 5.06 mL/h/kg
Cc1cc(C(=O)O)nc(N2C[C@H]3C[C@H](c4ccccc4C(F)(F)F)C[C@H]3C2)n1 [Compound 40, 6-Methyl-2-((3aR,5s,6aS)-5-(2-(trifluoromethyl)phenyl)-hexahydrocyclopenta[c]pyrrol-2(1H)-yl)pyrimidine-4-carboxylic Acid] | – | – | RBP4 activity (RBP4): devoid of RBP4 activity
O=C(O)c1cncc(N2C[C@H]3C[C@@H](c4ccccc4C(F)(F)F)C[C@H]3C2)c1 [Compound 51, 5-((3aR,5r,6aS)-5-(2-(Trifluoromethyl)phenyl)hexahydrocyclopenta[c]pyrrol-2(1H)-yl)nicotinic Acid] | – | – | RBP4 activity (RBP4): devoid of RBP4 activity
